Our source for the GI50 and IC (TGI) values is US20160095843A1, “PYRAZOLOPYRROLIDINE DERIVATIVES AND THEIR USE IN THE TREATMENT OF DISEASE” (NOVARTIS AG, priority 2013, published 2016).

Where two headings read alike, the source gives them in different places.

For assay [1], the system named is K-562 cells. Kind of assay: Cell growth inhibition assay (CellTiter-Glo), K-562. Type of assay: cell-based, human. Summed up:
(§1)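 Cellular ATP (CellTiter-Glo luminescence) measured after 4 days at 37° C., 5% CO2 of compound exposure, top concentration 10 μM in 3-fold steps, 0.1% DMSO. Readings corrected for no-cell background and a day-0 plate, normalised to vehicle and medium wells; half-maximal and total growth inhibition from four-parameter curves.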
For orientation: Cellular ATP, detected with luciferase, serves as a proxy for viable cell number.

Assay [2] concerns MV-4-11 cells. Kind of assay: Cell growth inhibition assay (CellTiter-Glo), MV-4-11. Type of assay: cell-based. Particulars: Homo sapiens, MV4-11. Put shortly:
as §1

Assay [3] relates to THP-1 cells. Kind of assay: Cell growth inhibition assay (CellTiter-Glo), THP-1. Particulars: Homo sapiens. Type of assay: cell-based. Put shortly:
as §1

For `Cc1nn(C2CC2)c2c1[C@H](c1ccc(Cl)cc1)N(c1cc(C)c3nnc(C)n3n1)C2=O` [Example 123, (S)-4-(4-chlorophenyl)-1-cyclopropyl-5-(3,8-dimethyl-[1,2,4]triazolo[4,3-b]pyridazin-6-yl)-3-methyl-4,5-dihydropyrrolo-[3,4-c]pyrazol-6(1H)-one], the 50% growth inhibitory concentration (GI50) in assay [1] (Homo sapiens, K562) is 9400 nM; in assay [2] it was 2870 nM; in assay [3], 5880 nM.
In the case of `COCc1nn(C2CC2)c2c1C(c1ccc(Cl)cc1)N(c1cc(C)c(=O)n(C)c1)C2=O` (racemic) [Example 132, 4-(4-chlorophenyl)-1-cyclopropyl-5-(1,5-dimethyl-6-oxo-1,6-dihydropyridin-3-yl)-3-(methoxymethyl)-4,5-dihydropyrrolo[3,4-c]pyrazol-6(1H)-one], the concentration for 50% growth inhibition (GI50) in assay [1] (Homo sapiens, K562) came out at 427 nM; in assay [2], 52.3 nM; in assay [3] it was 107 nM. Besides, the IC (TGI) in assay [1] (Homo sapiens, K562) was more than 10000 nM; in assay [2], 99.5 nM; in assay [3], 233 nM.
For the molecule `Cc1ncccc1-n1nc(C)c2c1C(=O)N(c1cc(C)c(=O)n(C)c1)C2c1ccc(Cl)cc1` (stereo not shown) [Example 82, 4-(4-chlorophenyl)-5-(1,5-dimethyl-6-oxo-1,6-dihydropyridin-3-yl)-3-methyl-1-(2-methylpyridin-3-yl)-4,5-dihydropyrrolo[3,4-c]pyrazol-6(1H)-one], the GI50 is 920 nM in assay [1] (Homo sapiens, K562); 94.8 nM in assay [2]; 222 nM in assay [3].
Taken in the same sequence, the figures for `CCc1nn(CCO)c2c1C(c1ccc(Cl)cc1)N(c1cc(C)c(=O)n(C)c1)C2=O` (stereo not shown) [Example 78, 4-(4-chlorophenyl)-5-(1,5-dimethyl-6-oxo-1,6-dihydropyridin-3-yl)-3-ethyl-1-(2-hydroxyethyl)-4,5-dihydropyrrolo-[3,4-c]pyrazol-6(1H)-one] were 392 nM, 52 nM and 85.4 nM.
Turning to `Cc1nn(C2COC2)c2c1C(c1ccc(Cl)cc1)N(c1cc(C)c(=O)n(C)c1)C2=O` (stereo not shown) [Example 135, 4-(4-chlorophenyl)-5-(1,5-dimethyl-6-oxo-1,6-dihydropyridin-3-yl)-3-methyl-1-(oxetan-3-yl)-4,5-dihydropyrrolo-[3,4-c]pyrazol-6(1H)-one], the GI50 stood at 616 nM in assay [1] (Homo sapiens, K562); 79.9 nM in assay [2]; 86.1 nM in assay [3].
The like results for `Cc1nn(C2CC2)c2c1C(c1ccc(OC(F)(F)F)cc1)N(c1cc(C)c(=O)n(C)c1)C2=O` (stereo not shown) [Example 95, 1-cyclopropyl-5-(1,5-dimethyl-6-oxo-1,6-dihydropyridin-3-yl)-3-methyl-4-(4-(trifluoromethoxy)phenyl)-4,5-dihydropyrrolo-[3,4-c]pyrazol-6(1H)-one] were, in that order, 868 nM, 140 nM and 245 nM.
In the case of `CCc1nn(C2CC2)c2c1C(c1ccc(Cl)cc1)N(c1cc(C)c3nnc(C)n3c1)C2=O` (stereo not shown) [Example 70, 4-(4-chlorophenyl)-1-cyclopropyl-5-(3,8-dimethyl-[1,2,4]triazolo[4,3-a]pyridin-6-yl)-3-ethyl-4,5-dihydropyrrolo-[3,4-c]pyrazol-6(1H)-one], the GI50 came out at 60.8 nM in assay [1] (Homo sapiens, K562); 9.02 nM in assay [2]; 12.2 nM in assay [3].
The molecule `CCc1nn(C2CC2)c2c1[C@H](c1ccc(Cl)cc1)N(c1cc(C)c3nnc(C)n3c1)C2=O` [Example 106, (S)-4-(4-chlorophenyl)-1-cyclopropyl-5-(3,8-dimethyl-[1,2,4]triazolo[4,3-a]pyridin-6-yl)-3-ethyl-4,5-dihydropyrrolo-[3,4-c]pyrazol-6(1H)-one] registered an IC (TGI) in assay [1] of more than 10000 nM. Moreover, the GI50 is 4060 nM in assay [1] (Homo sapiens, K562); 649 nM in assay [2]; 2110 nM in assay [3].

One may read the GI50 as the concentration that inhibits growth by half. A lower GI50 goes with more potent growth inhibition.
